Experimental data reported in patent US20200255844A1, “MULTIPLEXED RECEPTOR-LIGAND INTERACTION SCREENS” (THE REGENTS OF THE UNIVERSITY OF CALIFORNIA, priority 2017, published 2020).

Key:
Format in all cases: cell-based, mouse
MOR189-1 = assay: High-throughput multiplexed odorant screening (Smell-seq), barcode RNA-seq readout; details: OR MOR189-1; pair called as hit, FDR=1%
Description: (§1) We subsequently screened 182 odorants at three concentrations in triplicate against the OR cell library, the equivalent of ˜85,000 individual luciferase assays including controls (FIG. 10A, Table 2). Each 96-well plate in the assay contained positive control odorants and solvent DMSO wells for normalization (FIG. 16). We used the EdgeR software package to determine differentially responsive ORs based on a negative binomial model of barcode counts. We found 114 OR-odorant interactions (out of 7,200 possible), 81 of which are novel, and 24 interactions with 15 orphan receptors (FIG. 10C, FIG. 17 and Supplementary Table 4) (FDR=1%; Benjamini-Hochberg correction). Overall 28 of 39 receptors were activated by at least one odorant, and 68 of 182 odorants activated at least one OR (Table 4). We chose 37 interactions of at least 1.2 fold induction to test individually with a previously developed transient OR assay that has several important differences (FIG. 18). Of the 28 interactions called as hits at an FDR of 1%, 21 of them replicated in this orthogonal system (FIG. 17). […] Conversely, we also detect 14 interactions that this previous study tested, but called negative.

MOR139-1 = assay: as above; details: OR MOR139-1; pair called as hit, FDR=1%
Description: as §1

MOR170-1 = assay: High-throughput multiplexed odorant screening (Smell-seq), 96-well, barcode RNA-seq readout; details: OR MOR170-1; pair called as hit, FDR=1%
Protocol: (§2) 10. High-Throughput Odorant Screening
(§3) The OR library cell line was thawed from a liquid nitrogen frozen stock into a T-225 flask (Corning) three days before seeding into a 96-well plate for screening. The library was seeded at 6,666 cells per well in 100 ul of DMEM. 24 hours later a working concentration of 1 ug/ml of doxycycline in DMEM was added to the wells. 24 hours after induction, the media was removed from each plate and replaced with 25 ul of odorant diluted in OptiMEM. Each odor was added at three different concentrations (10 uM, 100 uM, 1 mM) in triplicate with the same amount of final DMSO (1%). Each plate contained two control odorants at a three concentration (10 uM, 100 uM, 1 mM) in triplicate and three wells containing 1% DMSO dissolved in media. The library was incubated with odorants for three hours in a cell culture incubator with the lids removed.
(§4) After odor incubation, media was pipetted out of the plates and cells were lysed by adding 25 uL of ice-cold Cells-to-cDNA II Lysis Buffer (Thermo Fisher) and pipetting up and down to homogenize and lyse cells. The lysate was then heated to 75° C. for 15 minutes and flash frozen with liquid nitrogen and kept at −80 C until further processing. Then 0.5 uL DNase I (New England Biolabs) was added to lysate, and incubated at 37° C. for 15 minutes. To anneal the RT primer, 5 ul of lysate from each well was combined with 2.5 ul of 10 mM dNTPs (New England Biosciences), 1 ul of 2 uM gene specific RT primer (OL003), and 1.5 ul of H2O. The reaction was heated to 65° C. for 5 min and cooled back down to 0° C. After annealing, 1 ul of M-MuLV Reverse Transcriptase (Enzymatics), 1 ul of buffer, and 0.25 ul of RNase Inhibitor (Enzymatics) were added to each reaction. Reactions were incubated at 42° C. for 60 min and the RT enzyme was heat inactivated at 85° C. for 10 min.
(§5) For each batch, qPCR was performed on a few wells (OL005F and OL013) with SYBR FAST qPCR Mastermix to determine the number of cycles necessary for PCR based library preparation. The reaction and cycling conditions are optimized as follows: 95° C. for 3 minutes, 40 cycles of 95° C. for 3 seconds and 60° C. for 20 seconds. After qPCR, 5 ul of each RT reaction was combined with 0.4 ul of 10 uM primers containing sequencing adaptors (OL005F and OL013), 10 ul of NEB-Next Q5 Mastermix (New England Biosciences) and 4.2 ul H2O, the PCR was carried out according to the manufacturer's protocol. The forward primer contains the P7 adaptor sequence and an index identifying the well in the assay and the reverse primer contains the P5 adaptor sequence and an index identifying the plate in the assay. PCR products were pooled together by plate and purified with the DNA Clean and Concentrator Kit. Library concentrations were quantified using a Tape Station 2200 and a Qubit (Thermo Fisher). The libraries were sequenced with two index reads and a single end 75-bp read on a NextSeq 500 in high-output mode (Illumina).
(§6) 11. Analysis of Next-Generation Sequencing Data
(§7) Samples were identified via indexing by their PCR indexes adapters unique for each well (5′ end) and unique for each plate (3′ end). The well barcodes followed the 7 bp indexing scheme in (Illumina Sequencing Library Preparation for Highly Multiplexed Target Capture and Sequencing Matthias Meyer, Martin Kircher, Cold Spring Harb Protoc; 2010; doi:10.1101/pdb.prot5448). The plate indexing scheme followed the Illumina indexing scheme. Sequencing data was demultiplexed and 15 bp barcode sequences were counted with only exact matches by custom python and bash scripts.
(§8) 12. Statistical Methods for Calling Hits
(§9) Count data was then analyzed using the differential expression package EdgeR. To filter out ORs with low representation, we set a cutoff that an OR had to contain at least 0.5% of the reads from more than 399 of the 1954 test samples. This filtered out 3 of 42 ORs which were underrepresented in the cell library (MOR172-1, MOR176-1 and MOR181-1). […]

MOR5-1 = assay: as above; details: OR MOR5-1; pair called as hit, FDR=1%
Protocol: as §2, §3, §4, §5, §6, §7, §8, §9

MOR131-1 = assay: High-throughput multiplexed odorant screening (Smell-seq), barcode RNA-seq readout; details: OR MOR131-1; pair called as hit, FDR=1%
Description: as §1

Olfr62 = assay: as above; details: OR Olfr62; pair called as hit, FDR=1%
Description: as §1

MOR136-1 = assay: as above; details: OR MOR136-1; pair called as hit, FDR=1%
Description: as §1

MOR23-1 = assay: as above; details: OR MOR23-1; pair called as hit, FDR=1%
Description: as §1

MOR30-1 = assay: as above; details: OR MOR30-1; pair called as hit, FDR=1%
Description: as §1

MOR25-1 = assay: as above; details: OR MOR25-1; pair called as hit, FDR=1%
Description: as §1

MOR13-1 = assay: High-throughput multiplexed odorant screening (Smell-seq), 96-well, barcode RNA-seq readout; details: OR MOR13-1; pair called as hit, FDR=1%
Description: We find that chemicals with similar features activate similar sets of ORs, including those receptors we deorphanize in this study. For example, the previously orphan MOR13-1 is activated by four chemicals with polar groups attached, in three cases, to stiff non-rotatable scaffolds. Another example is, MOR19-1, which has clear affinity for the salicylate functional group. To better understand how chemical similarity relates to receptor activation without relying on incomplete and sometimes arbitrary chemical descriptors, we used a previously validated computational autoencoder to represent each chemical in a ˜292 dimensional latent space, allowing nearly lossless compression of chemical structure (Data not shown). We find chemicals that activate the same OR tend to cluster distinctly (FIG. 10D, FIG. 20). […] Many, but not all of the receptors. […] Understanding the space of chemicals that activates each OR establishes the groundwork for prediction of novel odorant-OR interactions.
as §2, §3
After odor incubation, media was pipetted out of the plates and cells were lysed by adding 25 uL of ice-cold Cells-to-cDNA II Lysis Buffer (Thermo Fisher) and pipetting up and down to homogenize and lyse cells. The lysate was then heated to 75° C. for 15 minutes and flash frozen with liquid nitrogen and kept at −80 C until further processing. Then 0.5 uL DNase I (New England Biolabs) was added to lysate, and incubated at 37° C. for 15 minutes. […]
For each batch, qPCR was performed on a few wells (OL005F and OL013) with SYBR FAST qPCR Mastermix to determine the number of cycles necessary for PCR based library preparation. […] Library concentrations were quantified using a Tape Station 2200 and a Qubit (Thermo Fisher). The libraries were sequenced with two index reads and a single end 75-bp read on a NextSeq 500 in high-output mode (Illumina). […]

C/C=C/C(=O)C1=C(C)CCCC1(C)C [beta-Damascone]
Minimum Activating Concentration (MOR189-1): 1000 µM

CC(C)=C1CC[C@@H](C)CC1=O [(+)-Pulegone]
Minimum Activating Concentration (MOR139-1): 1000 µM

CC(=O)OCc1ccccc1 [Benzyl acetate]
Minimum Activating Concentration (MOR170-1): 1000 µM

O=C1CCOc2ccccc21 [4-Chromanone]
Minimum Activating Concentration (MOR139-1): 1000 µM | Minimum Activating Concentration (MOR189-1): 1000 µM | Minimum Activating Concentration (MOR170-1): 100 µM

CC/C=C\CCCCC=O [cis-6-Nonenal]
Minimum Activating Concentration (MOR5-1): 1000 µM

CCCC=O [Butanal]
Minimum Activating Concentration (MOR139-1): 1000 µM

CCC(=O)C(=O)CC [3,4-Hexanedione]
Minimum Activating Concentration (MOR131-1): 1000 µM

O=C1Cc2ccccc2O1 [2-coumaranone]
Minimum Activating Concentration (Olfr62): 1000 µM

C=C(C)[C@@H]1CC[C@@H](C)C(=O)C1 [(+)-Dihydrocarvone]
Minimum Activating Concentration (MOR139-1): 1000 µM

CC(C)=CCC/C(C)=C\COC(=O)C(C)C [Neryl isobutyrate]
Minimum Activating Concentration (MOR139-1): 1000 µM

CCc1ccccc1O [2-Ethylphenol]
Minimum Activating Concentration (MOR136-1): 100 µM

CCCCCCCCC=O [Nonanal]
Minimum Activating Concentration (MOR23-1): 1000 µM | Minimum Activating Concentration (MOR30-1): 1000 µM | Minimum Activating Concentration (MOR5-1): 1000 µM

C=CCc1ccc(OC)c(OC)c1 [Eugenol methyl ether]
Minimum Activating Concentration (MOR139-1): 1000 µM | Minimum Activating Concentration (MOR189-1): 1000 µM | Minimum Activating Concentration (MOR170-1): 10 µM

O=Cc1ccc2c(c1)OCO2 [Piperonal]
Minimum Activating Concentration (Olfr62): 1000 µM | Minimum Activating Concentration (MOR170-1): 1000 µM

CCCCCCCCCC=O [Decanal]
Minimum Activating Concentration (MOR30-1): 100 µM | Minimum Activating Concentration (MOR25-1): 1000 µM

CCCCC/C=C\CCC=O [cis-4-Decenal]
Minimum Activating Concentration (MOR5-1): 1000 µM

CCCCCCCCC(=O)O [Nonanoic Acid]
Minimum Activating Concentration (MOR23-1): 1000 µM | Minimum Activating Concentration (MOR30-1): 100 µM | Minimum Activating Concentration (MOR25-1): 1000 µM | Minimum Activating Concentration (MOR5-1): 100 µM

CCCCCCC=O [Heptanal]
Minimum Activating Concentration (MOR23-1): 1000 µM

CCCCCCO [1-hexanol]
Minimum Activating Concentration (MOR131-1): 1000 µM

C=C(C)C1CC=C(C=O)CC1 (single isomer, unassigned; (-)) [(−)-Perillaaldehyde]
Minimum Activating Concentration (MOR131-1): 1000 µM

CCCCCCCCCC(=O)O [Decanoic-Acid]
Minimum Activating Concentration (MOR30-1): 10 µM | Minimum Activating Concentration (MOR25-1): 100 µM | Minimum Activating Concentration (MOR5-1): 1000 µM

OCC=Cc1ccccc1 [Cinnamyl alcohol]
Minimum Activating Concentration (MOR170-1): 1000 µM

CNc1ccccc1C(=O)OC [Dimethyl anthranilate]
Minimum Activating Concentration (MOR139-1): 1000 µM | Minimum Activating Concentration (MOR170-1): 10 µM

CC12CCC(CC1=O)C2(C)C (stereo not drawn) [(+)-Camphor]
Minimum Activating Concentration (MOR136-1): 100 µM

C/C=C(\C)C=O [trans-2-Methyl-2-butenal (2MB)]
Minimum Activating Concentration (MOR13-1): 1000 µM

CCCCCCC(Br)C(=O)O (stereo not drawn) [2-Bromooctanoic acid]
Minimum Activating Concentration (MOR23-1): 1000 µM | Minimum Activating Concentration (MOR5-1): 1000 µM

C=C(C)C1CC=C(C)C(=O)C1 (single isomer, unassigned; (-)) [(−)-Carvone]
Minimum Activating Concentration (MOR25-1): 1000 µM

CCCCC(Br)C(=O)O (stereo not drawn) [2-Bromohexanoic acid]
Minimum Activating Concentration (MOR5-1): 1000 µM | Minimum Activating Concentration (MOR170-1): 1000 µM

O=C(c1ccccc1)c1ccccc1 [Benzophenone]
Minimum Activating Concentration (Olfr62): 1000 µM

CCCCCC1=C(C)CCC1=O [Dihydrojasmone]
Minimum Activating Concentration (MOR139-1): 1000 µM

C=C(C)C1CCC(C)C(O)C1 (single isomer, unassigned; (-)) [(−)-Dihydrocarveol]
Minimum Activating Concentration (MOR139-1): 1000 µM | Minimum Activating Concentration (MOR136-1): 1000 µM

COc1ccc(C=O)cc1 [Anisaldehyde]
Minimum Activating Concentration (MOR170-1): 1000 µM

O=C(O)CCCCCBr [6-Bromohexanoic acid]
Minimum Activating Concentration (MOR23-1): 100 µM | Minimum Activating Concentration (MOR5-1): 1000 µM

CC(=O)/C=C/C1=C(C)CCCC1(C)C [beta-ionone]
Minimum Activating Concentration (MOR139-1): 1000 µM | Minimum Activating Concentration (MOR189-1): 1000 µM

CCC(C)c1nccnc1OC (stereo not drawn) [2-sec-Butyl-3-methoxypyrazine]
Minimum Activating Concentration (MOR139-1): 1000 µM

CCCCCCCC=O [Octanal]
Minimum Activating Concentration (MOR23-1): 100 µM | Minimum Activating Concentration (MOR5-1): 1000 µM

COc1cc(C=O)ccc1O [Vanillin]
Minimum Activating Concentration (MOR170-1): 1000 µM

O=C(O)C1CCC1 [Cyclobutanecarboxylic acid]
Minimum Activating Concentration (MOR13-1): 1000 µM

c1ccc2ncccc2c1
Minimum Activating Concentration (MOR139-1): 100 µM | Minimum Activating Concentration (MOR189-1): 1000 µM | Minimum Activating Concentration (Olfr62): 1000 µM | Minimum Activating Concentration (MOR170-1): 100 µM

C=CCc1ccc(O)c(OC)c1 [Eugenol]
Minimum Activating Concentration (MOR139-1): 1000 µM

CC(=O)OCCc1ccccc1 [2-Phenethyl acetate]
Minimum Activating Concentration (MOR170-1): 1000 µM

C=C(C)C1CCC(C)C(O)C1 (single isomer, unassigned; (+)) [(+)-Dihydrocarveol]
Minimum Activating Concentration (MOR136-1): 1000 µM

CCc1ccc(O)cc1 [4-Ethylphenol]
Minimum Activating Concentration (MOR170-1): 1000 µM
